Data set [1] can be described thus: Simultaneous analysis of 17O NMR and 1H NMRD data (Solomon-Bloembergen-Morgan). The data set is classed as physicochemical. The protocol:
^1H NMRD profiles on aqueous solutions of MnL2 (cMn2+ = 0.98 mM; pH = 7.22) and MnL3 (cMn2+ = 0.96 mM; pH = 7.20) were recorded at 25 and 37 °C on a SMARTracer Fast Field Cycling NMR relaxometer (Stelar; 0.00024–0.24 T, 0.01–10 MHz ^1H Larmor frequency) and a WP80 NMR electromagnet adapted to variable-field measurements (Bruker; 0.47–1.88 T, 20–80 MHz ^1H Larmor frequency). The temperature was maintained by a gas flow and monitored by a VTC91 temperature control unit based on previous calibration with a Pt resistance temperature probe.
Variable-temperature ^17O NMR measurements of aqueous solutions of MnL2 (cMnL = 3.70 mmol·kg^–1, pH = 7.03) and MnL3 (cMnL = 3.72 mmol·kg^–1, pH = 7.2) were performed on a Bruker Avance III 400 MHz spectrometer (9.4 T, 54.2 MHz) in the temperature range 5–75 °C. The temperature was calculated after calibration with ethylene glycol and […]. Acidified water (HClO4, pH = 3.3) was used as a diamagnetic reference. The ^17O transverse relaxation times (T2) were obtained by using the CPMG spin–echo technique. To eliminate susceptibility contributions to the chemical shift, the sample was in a glass sphere placed in a 10 mm NMR tube. To improve the sensitivity, ^17O-enriched water (11.10% H2^17O, Cortecnet) was added to the solution to yield approximately 1% ^17O enrichment.
The ^17O NMR and NMRD data have been analyzed according to the Solomon–Bloembergen–Morgan theory of paramagnetic relaxation.[3] The least-squares fit was performed using Visualizeur/Optimiseur running on a MATLAB 8.3.0 (R2014a) platform.
^1H NMRD profiles were recorded at 25 and 37 °C in the magnetic field range 0.01–80 MHz (Figure 6, bottom). The reduced transverse ^17O relaxation rates were simultaneously fitted with ^1H NMRD data according to the Solomon–Bloembergen–Morgan theory (equations are given in SI). The fitted parameters are summarized in Table 6 and compared to those for seven-coordinate Mn(II) complexes of L1 and 15-pyN3O2 ligands, as well as of [Mn(H2O)6]^2+.
The shape of the ^1H NMRD curves reflects typical low-molecular-weight complexes. The profiles display one dispersion between 1 and 10 MHz as has been previously described for other complexes except [Mn(H2O)6]^2+.[49],[50] The hydration number of MnL2 and MnL3 was assumed in both cases to be q = 1 for a total coordination number of CN = 7, based on the X-ray crystal structure. In aqueous solution, the chloride or the acetonitrile that coordinates to Mn(II) in the solid state will be replaced by one water molecule to complete the coordination sphere of Mn(II). As it was described by Gale et al.,[51] the ^17O T2 values can also give an estimate of hydration number, provided the 1/T2r vs temperature curve has a maximum. This approach is not applicable for MnL2 and MnL3 since both systems are in the slow exchange regime in the entire temperature range studied. The lack of a fast exchange regime prevents the fit of the scalar coupling constant, A0/ℏ, as well which was therefore fixed to 38.6 MHz.[28]

For data set [2] the following is noted: fixed during the fitting procedure ref 28; cited from earlier work.
Data set [3] in a line: Stability constants of Mn(II) complexes by pH-potentiometry, pMn and species distribution. The data set is classed as physicochemical. Conditions: species distribution, [Mn(II)] = [L] = 1.5 mM. The method, then:
Metal stock solutions were prepared from the highest analytical grade chemicals, and their concentration was determined by complexometric titration with standardized Na2H2EDTA, using xylenol orange indicator in the presence of urotropine buffer (ZnCl2 and MnCl2); Eriochrome black T indicator in the presence of ammonium acetate buffer (CaCl2) or murexide indicator in ammonium solution (CuCl2). The concentration of the ligand stock solutions was determined by pH-potentiometric titrations (the difference between two consecutive inflection points of the ligand titration curve corresponds to two (L2) or one (L3) ligand equivalents). To determine the protonation constants of the ligand and stability constants of the metal complexes with selected divalent metal ions, pH-potentiometric titrations were carried out with 0.1 M NaOH at 2 mM ligand concentration, in the absence (for ligand protonation constants) or in the presence of one equivalent of metal ion (for stability constants). During the titration, the waiting time was 2 min between successive points (V0 = 5 mL). The temperature (25.0 ± 0.1 °C) was controlled by a circulating water bath. The ionic strength was set to I = 0.15 M NaCl. All titrations were performed under a nitrogen atmosphere to avoid the effect of CO2. Titrations were carried out in the pH range from 1.8 (L3) or 2.0 (L2) (after the addition of 1 M HCl solution to the starting ligand solution in the titration cell) to pH 11 (or until precipitation of the metal hydroxide). All pH-potentiometric titrations were performed using a 785 DMP Titrino titration workstation with a combined electrode (Metrohm). The p[H] (p[H] = −log[H+], concentration in molarity) was measured in each titration with a combined pH glass electrode (Metrohm) filled with 3 M KCl. The electrode was calibrated in hydrogen ion concentration by titration of HCl with KOH in 0.1 M electrolyte solution.[37] A plot of potential versus p[H] allows determination of the electrode standard potential (E°) and the slope factor (f).
The protonation constants of the ligand (log Ki^H) are defined as follows [drawing 1] where i = 1, 2, ··· and [Hi–1L] and [H^+] are the equilibrium concentrations of the ligand (i = 1), its protonated forms (i = 2, ···), and the hydrogen ion. The stability (KML) and the protonation (KMHiL) constants for the metal complexes are defined as follows [drawing 2] [drawing 3] For the calculations of the equilibrium constants, the HYPERQUAD program was used.[38] The number of fitted data pairs was between 190 and 240. The ionic product of water at 25 °C and 0.1 M ionic strength is pKw = 13.77.[39] Fixed values were used for pKw, ligand acidity constants, and total concentrations of metal, ligand, and acid. All values and errors (one standard deviation) reported are at least the average of two independent experiments.
To obtain further information about the impact of a given pendant arm, it is interesting to calculate pMn values (pMn = −log[Mn(II)]free at pH 7.4, cMn = clig= 10^–5 M) which provide a more direct comparison of MnL stabilities, independently of differences in protonation constants (Table 4). […] Nevertheless, the too large, 15-membered macrocyclic cavity combined with a lower number of pendant arms provide ca. 2 orders of magnitude lower stability for Mn(II) complexation as compared to the 12-membered pyclen derivatives (Table 4).

SMILES strings stand for the structures.

With `O.[Mn+2].c1cc2nc(c1)CN(Cc1nc3ccccc3[nH]1)CCOCCOCCNC2` [MnL3], in data set [1], the “ErH (activation energy for the rotational motion)” value stood at 15.0 ± 0.5 kJ mol^–1, the “kex^298 (water exchange rate constant)” value was 0.23 × 10^7 s^–1, the “kex^298 (water exchange rate)” value is 0.23 ± 0.02 10^7 s^–1 and the “ΔH^‡ (activation enthalpy for the water exchange)” value came to 28.5 ± 2.5 kJ mol^–1. Further, in data set [1], the “ΔS^‡ (activation entropy for the water exchange)” value is listed as “–27 ± 7 J mol^–1K^–1”, the “Δ^2 (trace of the square of the transient ZFS tensor)” value is on record as 100 ± 10 10^18 s^–2, the “τrH^298 (rotational correlation time)” value is 45 ± 2 ps and the “τv^298 (correlation time for modulation of ZFS)” value was determined as 13 ± 3 ps. In addition, in data set [2], the “AO/ℏ (scalar coupling constant)” value is 38.6 ^e 10^6 rad s^–1. Also, the “pH above which full complex formation is achieved” value in data set [3] was above 6.

For `O.[Mn+2].c1ccc(CN2CCOCCOCCNCc3cccc(n3)C2)nc1` [MnL2], in data set [1], the “ErH (activation energy for the rotational motion)” value came to 15.0 ± 0.5 kJ mol^–1, the “kex^298 (water exchange rate constant)” value is 0.46 × 10^7 s^–1, the “kex^298 (water exchange rate)” value is 0.46 ± 0.02 10^7 s^–1 and the “ΔH^‡ (activation enthalpy for the water exchange)” value came to 28.7 ± 1.36 kJ mol^–1. For the same compound, in data set [1], the “ΔS^‡ (activation entropy for the water exchange)” value is “–21 ± 5 J mol^–1K^–1”, the “Δ^2 (trace of the square of the transient ZFS tensor)” value was 164 ± 10 10^18 s^–2, the “τrH^298 (rotational correlation time)” value was determined as 35 ± 4 ps and the “τv^298 (correlation time for modulation of ZFS)” value is given as 8 ± 1 ps. The “AO/ℏ (scalar coupling constant)” value in data set [2] is given as 38.6 ^e 10^6 rad s^–1. Moreover, the “pH above which full complex formation is achieved” value in data set [3] is listed as above 6.

Source of the values: PMC12042267, “Expanding the Family of Monosubstituted 15-Membered Pyridine-Based Macrocyclic Ligands for Mn(II) Complexation in the Context of MRI” (Inorganic Chemistry, 2025).
